Data from patent publication US8299097B2, “Methods for treating inflammatory disorders” (The Brigham and Women's Hospital, Inc., priority 2008, dated 2012).

Key:
p2ry12^−/− mice = assay: LTE4 amplification of pulmonary inflammation in p2ry12^−/− mice and C57BL/6 controls; type: in vivo, mouse
Experimental: FIG. 4. […] 4A. […] Clopidogrel (500 μg/ml) was added to the drinking water of the indicated groups of mice for 72 h before the first intranasal dose of LTs, and was maintained throughout the treatment. Results are mean±SEM from at least 9 mice in each group. The experiments were repeated three times with similar results. 4B. PAS stains (left column) from representative mice in the indicated groups showing the effect of clopidigrel on goblet cell metaplasia. Higher magnification images of H & E stains (right) from the same animals showing cellular characteristics of the bronchovascular infiltrates. 4C. Effect of clopidogrel administration on the steady-state expression of IL-13 and MUC5AC mRNA as determined by real-time PCR of whole lung RNA extracted 24 h after the last OVA challenge of the indicated groups. Data are mean±SEM from 4-5 mice/group from a single experiment. Results in a second experiment were similar 4D-4F. […] 4D. Total cell numbers (top), percentages of eosinophils (middle), and total numbers of eosinophils in BAL fluid recovered 24 h after the last challenge with OVA. 4E. Goblet cell metaplasia (top) and representative PAS stains (bottom) from wild-type and p2ry12^−/− mice subjected to the same protocol. 4E. Inflammation scores from the same mice. Data in 4D-4F are from 4 mice per group. […] Quantitative assessment of bronchovascular inflammation as determined by H & E stains. […]

P2Y12 receptors = P2Y12 receptors (Mus musculus, UniProt Q9CPV9); assay: Clopidogrel effect on LTE4-mediated amplification of OVA-induced pulmonary inflammation; type: in vivo; parameters: from tissue; host or cells: whole animal: BALB/c (OVA model) and C57BL/6 (Der f model) mice; conditions: whole lung RNA 24 h after last OVA challenge
P2Y12 receptors, sequence (Q9CPV9 whole entry): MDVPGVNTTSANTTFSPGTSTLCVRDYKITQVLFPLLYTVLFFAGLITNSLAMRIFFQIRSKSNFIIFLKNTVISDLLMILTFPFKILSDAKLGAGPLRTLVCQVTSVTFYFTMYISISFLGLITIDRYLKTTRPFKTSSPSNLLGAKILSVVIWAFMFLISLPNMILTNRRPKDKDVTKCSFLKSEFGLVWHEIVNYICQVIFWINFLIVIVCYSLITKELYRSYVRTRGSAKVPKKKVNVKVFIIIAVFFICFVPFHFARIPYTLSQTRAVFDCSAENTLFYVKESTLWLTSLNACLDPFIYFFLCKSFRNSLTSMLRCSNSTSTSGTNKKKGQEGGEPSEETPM
Experimental: FIG. 4. […] 4A. […] Clopidogrel (500 μg/ml) was added to the drinking water of the indicated groups of mice for 72 h before the first intranasal dose of LTs, and was maintained throughout the treatment. Results are mean±SEM from at least 9 mice in each group. The experiments were repeated three times with similar results. 4B. PAS stains (left column) from representative mice in the indicated groups showing the effect of clopidigrel on goblet cell metaplasia. Higher magnification images of H & E stains (right) from the same animals showing cellular characteristics of the bronchovascular infiltrates. 4C. Effect of clopidogrel administration on the steady-state expression of IL-13 and MUC5AC mRNA as determined by real-time PCR of whole lung RNA extracted 24 h after the last OVA challenge of the indicated groups. Data are mean±SEM from 4-5 mice/group from a single experiment. Results in a second experiment were similar 4D-4F. […] 4D. Total cell numbers (top), percentages of eosinophils (middle), and total numbers of eosinophils in BAL fluid recovered 24 h after the last challenge with OVA. 4E. Goblet cell metaplasia (top) and representative PAS stains (bottom) from wild-type and p2ry12^−/− mice subjected to the same protocol. 4E. Inflammation scores from the same mice. Data in 4D-4F are from 4 mice per group. Results in a second experiment were similar 4G. BALB/c Cysltr1/Cysltr2^−/− mice and age-matched WT controls were subjected to the same protocol as the p2ry12^−/− mice. Total cell numbers (top), percentages of eosinophils (middle), and total numbers of eosinophils in BAL fluid recovered 24 h after the last challenge with OVA. Results are from 6 mice per group. Three experiments were performed with similar results. 4H. Goblet cell numbers (top) and representative PAS stains (bottom). 4I. Quantitative assessment of bronchovascular inflammation as determined by H & E stains. Results are from 6 mice/group.
FIG. 5. Effect of clopidogrel on LTE4-mediated amplification of pulmonary inflammation. 5A. […] The indicated mice were treated with clopidogrel for 72 h before the first dose of leukotriene. Results are mean±SEM from a minimum of 9 mice in each group. 5B. PAS stains (left column) from representative mice in the indicated groups showing the effect of clopidigrel on goblet cell metaplasia. Higher magnification images of H & E stains (right) from the same animals showing cellular characteristics of the bronchovascular infiltrates. 5C. Effect of clopidogrel administration on the steady-state expression of IL-13 and MUC5AC mRNA as determined by real-time PCR of whole lung RNA extracted 24 h after the last OVA challenge of the indicated groups. Data are mean±SEM from 4-5 mice/group. […]

CCCCC/C=C\C\C=C/C=C/C=C/[C@@H](SC[C@H](N)C(=O)O)[C@@H](O)CCCC(=O)O [LTE4]
potentiation of BAL fluid eosinophilia, goblet cell metaplasia and bronchovascular infiltration (p2ry12^−/− mice; WT C57BL/6 controls): potentiated | potentiation of BAL fluid eosinophilia, goblet cell metaplasia and bronchovascular infiltration (p2ry12^−/− mice; p2ry12^−/− mice): severely blunted | lung expression of IL-13 and MUC5AC mRNA (real-time PCR) (P2Y12 receptors): tended to increase the expression of both transcripts
